Patent US20100105948A1, “HOP ALPHA ACID OR HOP OIL CONTENT ENHANCER” (COSMO OIL CO., LTD., priority 2007, published 2010)

Legend:
[1] = test system: hop (Zatecky poloskory cervenak); assay: Foliar treatment of hop seedlings (Example 1): contents of alpha acid, beta acid, hop oils; dry weight; format: in vivo; conditions: for (Reference) Dry weight / Beta acid (%) / Hop oil myrcene / Hop oil pharnesene / Alpha acid (%) / (Reference) Dry weight, ratio to no treatment / Alpha acid (ratio to no treatment) / Beta acid (ratio to no treatment) / Hop oil myrcene (ratio to no treatment) / Hop oil pharnesene (ratio to no treatment): foliar treatment 5 times; for Alpha acid (%): Zatecky poloskory cervenak; for (Reference) Dry weight, ratio to no treatment / Alpha acid (ratio to no treatment) / Beta acid (ratio to no treatment) / Hop oil myrcene (ratio to no treatment) / Hop oil pharnesene (ratio to no treatment): no treatment = 100
From the text: Seedlings of Zatecky poloskory cervenak cultivated by conventional method in Slovakia in 2006 were subjected to foliar treatment at timing shown in Table 1 with an aqueous 5-aminolevulinic acid (ALA) hydrochloride solution shown in Table 2.

[2] = test system: hop (high alpha acid type Marynka species); assay: Foliar treatment of hop seedlings (Example 2): alpha acid content; yield; format: in vivo; conditions: for Alpha acid (%): Marynka; for (Reference) Yield (ratio to no treatment %) / Alpha acid (ratio to no treatment): no treatment = 100
From the text: Seedlings of a high alpha acid type Marynka species cultivated by conventional method in Poland in 2006 were subjected to foliar treatment at timing shown in Table 4 with an aqueous ALA hydrochloride solution the same as in Example 1.

[3] = Treatment 1 (basal fertilizer 30% up): 0.05%, 1000 L/ha, 6 times
[4] = Treatment 1: 0.05%, 1000 L/ha, 6 times
[5] = Treatment 2: 0.05%, 1000, 2000, 3000 L/ha at 1st, 3rd, 5th time

In the case of `NCC(=O)CCC(=O)O` [ALA, 5-aminolevulinic acid], the “contents of an alpha acid, a beta acid, and hop oils” value ([1]; ALA treatment versus no treatment, Table 3, in words) is reported as “remarkably increased”, the “(Reference) Dry weight” value ([1]; 0.02%, 2500 L/ha) is reported as 1.76 t/ha and the “Beta acid (%)” value ([1]; 0.02%, 2500 L/ha) is reported as 4.62%. The Hop oil myrcene ([1]; 0.02%, 2500 L/ha) was 51.6, the Hop oil pharnesene ([1]; 0.02%, 2500 L/ha) was 19.9 and the “Alpha acid (%)” value ([1]; 0.02%, 2500 L/ha) was 3.26%. For the same compound, the “(Reference) Dry weight, ratio to no treatment” value ([1]; 0.02%, 2500 L/ha) was 125%, the “Alpha acid (ratio to no treatment)” value ([1]; 0.02%, 2500 L/ha) was 127 and the “Beta acid (ratio to no treatment)” value ([1]; 0.02%, 2500 L/ha) was 105. The “Hop oil myrcene (ratio to no treatment)” value ([1]; 0.02%, 2500 L/ha) was 149, the “Hop oil pharnesene (ratio to no treatment)” value ([1]; 0.02%, 2500 L/ha) was 121 and the “(Reference) Dry weight” value ([1]; 0.1%, 500 L/ha) was 1.44 t/ha. For the same compound, the “Beta acid (%)” value ([1]; 0.1%, 500 L/ha) was 4.95%, the Hop oil myrcene ([1]; 0.1%, 500 L/ha) was 57.0 and the Hop oil pharnesene ([1]; 0.1%, 500 L/ha) was 17.6. For the same compound, the “Alpha acid (%)” value ([1]; 0.1%, 500 L/ha) was 3.11%, the “(Reference) Dry weight, ratio to no treatment” value ([1]; 0.1%, 500 L/ha) was 103% and the “Alpha acid (ratio to no treatment)” value ([1]; 0.1%, 500 L/ha) was 121. For the same compound, the “Beta acid (ratio to no treatment)” value ([1]; 0.1%, 500 L/ha) was 113, the “Hop oil myrcene (ratio to no treatment)” value ([1]; 0.1%, 500 L/ha) was 164 and the “Hop oil pharnesene (ratio to no treatment)” value ([1]; 0.1%, 500 L/ha) was 107. The “content of an alpha acid” value ([2]; ALA treatment versus no treatment, Table 5, in words) was “remarkably increased”, the “(Reference) Yield (kg/ha)” value [2, 3] was 1610 kg/ha and the “Alpha acid (%)” value [2, 3] was 6.98%. The “(Reference) Yield (ratio to no treatment %)” value [2, 3] was “(104) %”, the “Alpha acid (ratio to no treatment)” value [2, 3] was “(104)” and the “(Reference) Yield (kg/ha)” value [2, 4] was 1609 kg/ha. The “Alpha acid (%)” value [2, 4] was 6.82%, the “(Reference) Yield (ratio to no treatment %)” value [2, 4] was “(104) %” and the “Alpha acid (ratio to no treatment)” value [2, 4] was “(102)”. The “(Reference) Yield (kg/ha)” value [2, 5] was 1610 kg/ha, the “Alpha acid (%)” value [2, 5] was 6.95% and the “(Reference) Yield (ratio to no treatment %)” value [2, 5] was “(104) %”. For the same compound, the “Alpha acid (ratio to no treatment)” value [2, 5] was “(104)”.
